The nature of the assay: Inhibition of yeast prion protein Sup35 infection of PSI yeast spheroplast cells.

The values that follow come from BindingDB's records for doi:10.1038/nchembio.65 (University of California San Francisco, 2008).

pEC50: −log10 of the molar value.

A word on the pEC50: it is the negative decadic logarithm of the EC50, by convention in mol/L.

In turn, `O=C1C(I)=CC(=C(c2ccccc2C(=O)O)C2C=C(I)C(=O)C(I)=C2)C=C1I` [TERAIODOPHENOLPHATHALIN] gave a pEC50 of 4.00.
